“Also recorded” adds a separate entry of the source.
Columns and labels:
teratomas from λH1 cells = assay: Teratoma formation/elimination in immunodeficient mice xenotransplanted with undifferentiated λH1 cells; assay type: in vivo, NOD-SCID mice
Procedure: In order to test whether our suicide gene strategy works as intended in vivo, 5×10^6 undifferentiated λH1 cells were transplanted subcutaneously in the left posterior dorsal flank of 5-6-week-old immunodeficient NOD-SCID mice. These conditions are known to result in the formation of teratomas within 6-9 weeks. Groups were assigned as follows: • 1. Control (no treatment): 3 mice • 2. Peri-transplantation treatment with GCV (40 mg/kg of body weight; 5 days, starting the 7th day after transplantation): 4 mice • 3. Peri-transplantation treatment with CB1954 (20 mg/kg of body weight; 5 days, starting the 7th day after transplantation): 4 mice
As described in the literature, tumors could be manually palpated and measured using calipers in the control group starting at week 6-7. At week 10, one of the mice was euthanized for histopathological characterization of the teratoma. Starting on week 11, we treated the remaining two mice with a combination of GCV and CB1954 to test the hypothesis that pro-drug administration would eliminate already formed tumors.
Two mice in this group were euthanized at this point, showing no evidence of tumors (data not shown). […] This could be due to either the carry-over of residual hESc escapees that survived the initial GCV regimen, or to the development of GCV-resistant mutations in HSV-TK, as described in the literature. To test these two hypotheses, we re-treated these animals with ganciclovir in a 5-day drug/2-day rest regimen for the following two weeks. If the reason for the appearance of these late-onset tumors was resistance to the drug, we should continue to observe tumor growth despite the treatment; in contrast, if they were derived from surviving escapees, we might see tumor recession.
All animal experiments were conducted under the supervision of the University of Miami Institutional Animal Care and Use Committee (IACUC). NOD-SCID mice (5-6 weeks old; Jackson Laboratories, Bar Harbour, Me.) were housed in […] pathogen-free (SPF) conditions at the Division of Veterinary Resources (DVR). 5×10^6 hESc were resuspended in 50 μl mTeSR supplemented with […] of the ROCK inhibitor Y-27632A, and subsequently mixed with undiluted Matrigel of equal volume. The cell suspension was injected into the subcutis of the left posterior dorsal flank of the animal. Tumor growth was monitored with a caliper. Mice were euthanized after the observation/re-treatment period, as described in the Results section. Euthanized animals were subject to general observation. The injection site was inspected and tumor tissue, if present, was collected and processed for histopathological analysis. Lungs, liver spleen and pancreas were also harvested for histological analysis of potential tumor invasion.

λH1 cells (H1.1 cells) = assay: MTT kill curve / pro-drug exposure of undifferentiated suicide-gene modified hESc; assay type: cell-based, human; details: for exposure time after which most λH1 cells die: 10 μM CB1954, 100 μM GCV (FIG. 8c); for ablation of H1.1 cells: after 7 days of exposure (FIG. 2); for sensitivity of undifferentiated modified clones to pro-drug: undifferentiated state
Text: Clones of the hESc line H1 containing both constructs were selected using Puro (for plasmid L) and Neo (for plasmid F). We used electroporation of the linearized plasmids followed by Puro+Neo selection to achieve stable integration of both cassettes (λH1). Integration was confirmed by PCR, and positive clones were expanded and stocked in liquid N2. ˜25 double resistant clones were handpicked, expanded under antibiotic selection and frozen in liquid N2. A typical undifferentiated colony of one such clone, propagated in Puro+Neo to maintain selective pressure, was imaged. […] Aliquots were screened by genomic PCR to confirm the integration of both constructs (data not shown). qRT-PCR was performed to determine which clones had higher transgene (HSV-TK and NTR) expression. Clone A (H1.1 from now on) was selected for further testing based on the results of these assays. A kill curve using different dosages for GCV (0.01 to 1000 μM) and CB1954 (0.1 to 300 μM) was done for H1.1. Cell death was quantified by MTT assays on H1.1 and the parental wild-type H1 line. These assays helped us determine the optimal concentration of each pro-drug that leads to complete ablation of undifferentiated H1.1 cells while preserving the viability of the parental line within 7 days. Such concentration was in the range of 10-100 μM for GCV and 50-100 μM for CB1954, as previously reported in the literature for other cell types^26,54,55. The integration of these constructs had no detectable effects in terms of pluripotency marker expression (TRA-1-60, SSEA3, SSEA4, Oct3/4, Nanog) vs. the unmodified parental line H1, as determined by qRT-PCR, immunofluorescence and FACS analyses (data not shown).
A kill curve using different dosages for GCV (0.01 to 1000 μM) and CB1954 (0.1 to 300 μM) was done for λH1 and the parental H1 lines. Cell death was quantified by MTT [3-(4,5-dimethylthiazol-2-yl)-2,5-diphenyltetrazolium bromide] assays, which helped us determine the optimal concentration of each pro-drug that leads to ablation of undifferentiated λH1 cells while preserving the viability of the parental line within 7 days. Such concentration was in the range of 10-100 μM for both GCV and CB1954 (FIG. 8a), as previously reported in the literature for other cell types (21, 22). We used 10 μM for CB1954 and 100 μM of GCV for all subsequent experiments.
hESc (H1, National Stem Cell Registry #WA01, passage 35-45) were cultured as described in Schuldiner et al., PNAS USA 97: 11307-11312 (2000) using mTeSR™ (STEMCELL Technologies, Vancouver, Canada). […] MTT (3-(4,5-dimethylthiazol-2-yl)-2,5-Diphenyltetrazolium Bromide) is a reagent which is converted from a soluble tetrazolium to its insoluble formazan form via the activity of mitochondrial NAD(P)H-dependent oxidoreductase activity. This can be used to evaluate growth and proliferation of hESC colonies. MTT growth assays were performed for the sensitivity of transfected colonies to neomycin, puromycin, GCV and CB1954 at varying concentrations as previously described.

parental H1 hESc line = assay: MTT kill curve / pro-drug exposure of parental unmodified hESc; assay type: cell-based, human; details: up to 7 days of exposure
Text: Clones of the hESc line H1 containing both constructs were selected using Puro (for plasmid L) and Neo (for plasmid F). We used electroporation of the linearized plasmids followed by Puro+Neo selection to achieve stable integration of both cassettes (λH1). Integration was confirmed by PCR, and positive clones were expanded and stocked in liquid N2. ˜25 double resistant clones were handpicked, expanded under antibiotic selection and frozen in liquid N2. A typical undifferentiated colony of one such clone, propagated in Puro+Neo to maintain selective pressure, was imaged. […] Cell death was quantified by MTT assays on H1.1 and the parental wild-type H1 line. […] The integration of these constructs had no detectable effects in terms of pluripotency marker expression (TRA-1-60, SSEA3, SSEA4, Oct3/4, Nanog) vs. the unmodified parental line H1, as determined by qRT-PCR, immunofluorescence and FACS analyses (data not shown).
A kill curve using different dosages for GCV (0.01 to 1000 μM) and CB1954 (0.1 to 300 μM) was done for λH1 and the parental H1 lines. Cell death was quantified by MTT [3-(4,5-dimethylthiazol-2-yl)-2,5-diphenyltetrazolium bromide] assays, which helped us determine the optimal concentration of each pro-drug that leads to ablation of undifferentiated λH1 cells while preserving the viability of the parental line within 7 days. […]

tumor cell lines = details: Prof. Searle, personal communication; cited from earlier work

Molecule | tumor formation after peri-transplantation treatment with CB1954 (teratomas from λH1 cells; 20 mg/kg, 5 days, starting the 7th day after transplantation, 11 weeks into the follow-up) | exposure time after which most λH1 cells die (λH1 cells (H1.1 cells)) [days] | ablation of H1.1 cells (λH1 cells (H1.1 cells)) [%] | sensitivity of undifferentiated modified clones to pro-drug (λH1 cells (H1.1 cells)) | sensitivity of parental H1 line to pro-drug (parental H1 hESc line) | tumor detection after peri-transplantation treatment with GCV (teratomas from λH1 cells; 40 mg/kg, 5 days, starting the 7th day after transplantation, up to week 10) | tumors after GCV re-treatment (teratomas from λH1 cells; 5-day drug/2-day rest regimen, 2-week course, one tumor >250 mm^3 at initiation (FIG. 11b)) | late-onset tumors in GCV-pretreated mice (teratomas from λH1 cells; two remaining mice, additional week after week 10) | optimal concentration of pro-drug that leads to ablation of undifferentiated modified cells while preserving the viability of the parental line (λH1 cells (H1.1 cells); within 7 days, MTT assay, kill curve GCV 0.01 to 1000 μM, CB1954 0.1 to 300 μM) [µM] | fold lower CB1954 concentration to which cells are sensitized vs the native enzyme (tumor cell lines) [fold]
NC(=O)c1cc(N2CC2)c([N+](=O)[O-])cc1[N+](=O)[O-] [CB1954, 5-(aziridin-1-yl)-2,4-dinitrobenzamide] | none of the animals in the third group (treated in the peri-transplantation period with CB1954) showed signs of tumor formation | 3 | 100 | sensitive | largely insensitive; also recorded: resistant; also recorded: remain largely unscathed |  |  |  |  | 
Nc1nc(O)c2ncn(COC(CO)CO)c2n1 [GCV, ganciclovir] |  | 7 | 100 | sensitive | largely insensitive; also recorded: resistant; also recorded: remain largely unscathed | No tumors could be detected | both tumors virtually disappeared | the tumors grew significantly in both mice | 10 to 100 | 
T41L/N71S: double mutant of E. coli nitroreductase (NTR, nfsB) with enhanced kinetics of CB1954 activation (protein, UniProt P38489 1-217, looked up, variant T41L N71S) Oxygen-insensitive NAD(P)H …: MDIISVALKRHSTKAFDASKKLTPEQAEQIKTLLQYSPSSLNSQPWHFIVASTEEGKARVAKSAAGNYVFSERKMLDASHVVVFCAKTAMDDVWLKLVVDQEDADGRFATPEAKAANDKGRKFFADMHRKDLHDDAEWMAKQVYLNVGNFLLGVAALGLDAVPIEGFDAAILDAEFGLKEKGYTSLVVVPVGHHSVEDFNATLPKSRLPQNITLTEV |  |  |  |  |  |  |  |  |  | ~15

Reference: US11723987B2, “Double suicide gene vector systems for stem cells” (UNIVERSITY OF MIAMI, priority 2016, dated 2023)
